The target of one data set is hERG channel (Homo sapiens (Human), UniProt Q12809). Description: Human ERG channel binding assay (fluorescence polarization). The following applies: Table 1; tracer displacement, 4 h at room temperature. The method, boiled down:
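Serially diluted compounds were incubated with a hERG-containing membrane fraction and a high-affinity red-shifted fluorescent hERG ligand. Displacement of the tracer was read by fluorescence polarization, and IC50 values were derived from the concentration-response curves.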
Background: Fluorescence polarisation rises when a labelled molecule tumbles more slowly, as on binding a larger partner.

In the next data set the target is recombinant human CHIT1 (Homo sapiens (Human), UniProt Q13231). Kind of data set: Human CHIT1 activity assay. The following applies: recombinant human CHIT1, citrate buffer pH 5.2, 37° C., 60 minutes; read-out: hCHIT1, IC50. The class given is biochemical. The method, boiled down:
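Recombinant human CHIT1 hydrolysed 4-methylumbelliferyl β-D-N,N′,N″-triacetylchitotriose in citrate buffer, pH 5.2, for 60 minutes at 37° C in the dark with shaking. Released 4MU was read by fluorescence at 460 nm under basic pH; IC50 values were calculated from dilution series.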

In the next data set the target is recombinant human AMCase (Homo sapiens (Human), UniProt Q9BZP6). Kind of data set: Human AMCase activity assay. The class given is biochemical. The following applies: citrate buffer pH 5.2, 37° C., 60 minutes, read-out: hAMCase, IC50. The method, boiled down:
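Recombinant hAMCase hydrolysed 4-methylumbelliferyl β-D-N,N′-diacetylchitobioside in citrate buffer pH 5.2, run 60 min at 37 °C in the dark with shaking. Released 4MU fluorescence was read at 460 nm under basic pH, and IC50 values were fitted from the compound dilutions.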

SMILES strings stand for the structures. Counter-ions that a name gives are not always drawn.

Chain of recombinant human CHIT1 (Q13231 22-466): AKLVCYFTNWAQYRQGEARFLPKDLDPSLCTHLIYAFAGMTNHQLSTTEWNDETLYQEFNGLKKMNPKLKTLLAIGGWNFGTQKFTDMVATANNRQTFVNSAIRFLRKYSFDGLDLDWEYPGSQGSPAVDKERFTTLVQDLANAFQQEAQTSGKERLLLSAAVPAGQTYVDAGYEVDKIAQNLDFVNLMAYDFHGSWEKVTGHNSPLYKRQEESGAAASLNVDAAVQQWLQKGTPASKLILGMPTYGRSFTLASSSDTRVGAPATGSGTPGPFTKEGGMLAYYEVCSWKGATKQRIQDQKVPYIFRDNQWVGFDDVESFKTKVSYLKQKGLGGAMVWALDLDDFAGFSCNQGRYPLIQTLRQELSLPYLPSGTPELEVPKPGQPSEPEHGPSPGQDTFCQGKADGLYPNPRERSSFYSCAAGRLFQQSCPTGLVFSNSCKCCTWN
Chain of hERG channel (Q12809 whole entry): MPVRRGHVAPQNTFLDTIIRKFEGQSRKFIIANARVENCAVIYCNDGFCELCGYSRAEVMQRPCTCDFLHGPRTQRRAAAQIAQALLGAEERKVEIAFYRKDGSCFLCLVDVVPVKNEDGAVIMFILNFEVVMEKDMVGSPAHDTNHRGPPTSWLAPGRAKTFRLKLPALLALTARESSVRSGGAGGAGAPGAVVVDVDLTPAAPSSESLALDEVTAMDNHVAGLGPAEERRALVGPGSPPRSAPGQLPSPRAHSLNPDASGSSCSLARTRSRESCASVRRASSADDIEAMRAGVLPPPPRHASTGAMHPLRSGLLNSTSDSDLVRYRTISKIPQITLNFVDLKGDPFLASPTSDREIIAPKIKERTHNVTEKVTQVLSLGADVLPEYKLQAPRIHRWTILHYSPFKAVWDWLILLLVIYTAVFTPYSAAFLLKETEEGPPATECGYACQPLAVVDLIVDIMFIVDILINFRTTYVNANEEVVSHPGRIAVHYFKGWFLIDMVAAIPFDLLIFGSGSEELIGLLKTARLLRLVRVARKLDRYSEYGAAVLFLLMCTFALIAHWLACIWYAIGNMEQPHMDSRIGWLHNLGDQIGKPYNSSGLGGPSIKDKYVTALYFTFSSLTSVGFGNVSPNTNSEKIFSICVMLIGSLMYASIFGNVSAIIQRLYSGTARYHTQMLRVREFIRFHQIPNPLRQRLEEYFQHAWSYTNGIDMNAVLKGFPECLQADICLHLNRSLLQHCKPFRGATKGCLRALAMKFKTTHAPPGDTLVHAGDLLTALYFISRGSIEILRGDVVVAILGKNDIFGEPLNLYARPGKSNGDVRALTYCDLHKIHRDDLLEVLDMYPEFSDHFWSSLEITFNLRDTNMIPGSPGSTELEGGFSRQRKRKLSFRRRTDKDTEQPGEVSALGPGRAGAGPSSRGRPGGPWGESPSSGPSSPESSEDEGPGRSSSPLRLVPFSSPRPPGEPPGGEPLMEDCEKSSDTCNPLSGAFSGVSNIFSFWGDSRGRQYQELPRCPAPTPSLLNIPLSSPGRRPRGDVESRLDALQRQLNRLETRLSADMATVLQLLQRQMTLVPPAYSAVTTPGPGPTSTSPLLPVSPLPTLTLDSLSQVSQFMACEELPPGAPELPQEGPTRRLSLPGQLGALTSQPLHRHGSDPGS
Chain of recombinant human AMCase (Q9BZP6 22-476): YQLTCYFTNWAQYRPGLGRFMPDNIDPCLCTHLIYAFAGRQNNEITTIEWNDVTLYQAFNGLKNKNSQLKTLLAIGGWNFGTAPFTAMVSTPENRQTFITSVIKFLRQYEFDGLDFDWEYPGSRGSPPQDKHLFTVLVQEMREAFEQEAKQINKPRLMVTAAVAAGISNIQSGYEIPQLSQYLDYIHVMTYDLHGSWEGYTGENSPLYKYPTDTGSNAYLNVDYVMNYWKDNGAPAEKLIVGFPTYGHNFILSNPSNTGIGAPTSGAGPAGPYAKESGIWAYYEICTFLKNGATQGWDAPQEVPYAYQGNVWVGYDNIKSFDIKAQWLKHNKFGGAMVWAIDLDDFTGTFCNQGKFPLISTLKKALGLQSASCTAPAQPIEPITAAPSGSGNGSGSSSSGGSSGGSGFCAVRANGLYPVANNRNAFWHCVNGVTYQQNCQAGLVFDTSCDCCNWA

For orientation: IC50 means the concentration needed to halve the response being measured. `C[C@@H](O)[C@H]1CN(C2CCN(c3nnc(N)[nH]3)CC2)[C@@H](Cc2ccc(Cl)cc2)CO1` [Example 67, (R)-1-((2R,5S)-4-(1-(5-amino-4H-1,2,4-triazol-3-yl)piperidin-4-yl)-5-(4-chlorobenzyl)morpholin-2-yl)ethanol 2,2,2-trifluoroacetate]: the values for the IC50 on hERG channel, on recombinant human CHIT1 and at recombinant human AMCase were over 100000 nM, under 100 nM and under 100 nM, respectively.
Consider `CCC(O)(CC)[C@H]1CN(C2CCN(c3nnc(N)[nH]3)CC2)[C@@H](Cc2ccc(Cl)cc2)CO1` [Example 68, 3-((2R,5S)-4-(1-(5-amino-4H-1,2,4-triazol-3-yl)piperidin-4-yl)-5-(4-chlorobenzyl)-morpholin-2-yl)pentan-3-ol 2,2,2-trifluoroacetate], for which the IC50 at hERG channel was 25000 to 100000 nM; on recombinant human CHIT1, under 100 nM; on recombinant human AMCase, under 100 nM.
As for `CC(C)CNC(=O)[C@H]1CN(C2CCN(c3nnc(N)[nH]3)CC2)[C@@H](Cc2ccc(Cl)cc2)CO1` [Example 69, (2R,5S)-4-(1-(5-amino-4H-1,2,4-triazol-3-yl)piperidin-4-yl)-5-(4-chlorobenzyl)-N-isobutylmorpholine-2-carboxamide 2,2,2-trifluoroacetate], the IC50 on hERG channel was 25000 to 100000 nM; on recombinant human CHIT1 it was under 100 nM; at recombinant human AMCase, under 100 nM.
Regarding `Nc1nnc(N2CCC(N3C[C@@H]4COCCN4C[C@@H]3Cc3ccc(Cl)cc3)CC2)[nH]1` [Example 73, 5-(4-((7S,9aR)-7-(4-chlorobenzyl)hexahydropyrazino[2,1-c][1,4]oxazin-8(1H)-yl)piperidin-1-yl)-4H-1,2,4-triazol-3-amine hydrochloride], the IC50 at hERG channel was 1000 to 10000 nM; on recombinant human CHIT1, 100 to 1000 nM; on recombinant human AMCase, under 100 nM.
For the compound `C[C@H]1CN(C2CCN(c3nnc(N)[nH]3)CC2)[C@@H](Cc2ccc(Br)cc2)CO1` [Example 75, 5-(4-((2S,5S)-5-(4-bromobenzyl)-2-methylmorpholino)piperidin-1-yl)-4H-1,2,4-triazol-3-amine 2,2,2-trifluoroacetate], the figures for the IC50 at hERG channel, on recombinant human CHIT1 and at recombinant human AMCase were 1000 to 10000 nM, under 100 nM and under 100 nM, respectively.
For `Nc1nnc(N2CCC(N3C[C@H](CF)OC[C@@H]3Cc3ccc(Br)cc3)CC2)[nH]1` [Example 76, 5-(4-((2R,5S)-5-(4-bromobenzyl)-2-(fluoromethyl)morpholino)piperidin-1-yl)-4H-1,2,4-triazol-3-amine 2,2,2-trifluoroacetate], the IC50 is over 100000 nM at hERG channel, under 100 nM at recombinant human CHIT1 and under 100 nM at recombinant human AMCase.
As for `Nc1nnc(N2CCC(N3C[C@@H]4CC(F)(F)CN4C[C@@H]3Cc3ccc(C(F)(F)F)cc3)CC2)[nH]1` [Example 78, 5-(4-((3S,8aS)-7,7-difluoro-3-(4-(trifluoromethyl)benzyl)hexahydropyrrolo[1,2-a]pyrazin-2(1H)-yl)piperidin-1-yl)-4H-1,2,4-triazol-3-amine 2,2,2-trifluoroacetate], the IC50 is 10000 to 25000 nM at hERG channel, under 100 nM at recombinant human CHIT1 and under 100 nM on recombinant human AMCase.

These data come from patent US11638707B2, “Substituted amino triazoles useful as chitinase inhibitors” (Molecure S.A., priority 2019, dated 2023).
